In patent US6861544B1, “Fluorous tin compounds an methods of using fluorous tin compounds” (University of Pittsburgh, priority 2000, dated 2005):

Experiments:
[1] = Partition coefficient of fluorous tin hydrides, FC-72/benzene (GC); assay type: physicochemical; conditions: FC-72 (1 mL) / benzene (1 mL), stirred 10 min, GC relative peak area, n-octadecane internal standard
Protocol: (§1) Measurement of the Partition Coefficient of Fluorous Tin hyrides 4a-c. Fluorous tin hydrides (2-12 mg) were stirred with FC-72 (1 mL) and benzene (1 mL) or acetonitrile (1 mL) for 10 min. After separation, n-octadecane was added to both phases as an internal standard (for FC-72 phase, the solvent was evaporated and ethyl acetate (1 mL) was added to dissolve both the tin hydride and n-ocadecane). An aliquot (10 uL) of each phase was injected to GC for three times and the relative peak area was used to calculate the following partition coefficients of tin hydrides: FC-72/CH3CN, 4a, 2.4; 4b, 14; 4c, 48; FC-72/benzene, 4a, 0.7; 4b, 2.5; 4c, 4.7.

[2] = Partition coefficient of fluorous tin hydrides, FC-72/CH3CN (GC); assay type: physicochemical; conditions: FC-72 (1 mL) / acetonitrile (1 mL), stirred 10 min, GC relative peak area, n-octadecane internal standard
Protocol: as §1

[3] = conditions of the reduction of FIG. 4

Row | Structure (SMILES) | partition coefficient FC-72/benzene [1] | partition coefficient FC-72/CH3CN [2] | solubility in t-butanol [3]
1 | [CH3][SnH]([CH3])[CH2]CC(F)(F)C(F)(F)C(F)(F)C(F)(F)C(F)(F)C(F)(F)F [4a, Dimethyl-(3,3,4,4,5,5,6,6,7,7,8,8,8-tridecafluorooctyl)stannane] | 0.7 | 2.4 | –
2 | [CH3][SnH]([CH3])[CH2]CC(F)(F)C(F)(F)C(F)(F)C(F)(F)C(F)(F)C(F)(F)C(F)(F)C(F)(F)F [4b, Dimethyl-(3,3,4,4,5,5,6,6,7,7,8,8,9,9,10,10,10-heptadecafluorodecyl)stannane] | 2.5 | 14 | –
3 | [CH3][SnH]([CH3])[CH2]CC(F)(F)C(F)(F)C(F)(F)C(F)(F)C(F)(F)C(F)(F)C(F)(F)C(F)(F)C(F)(F)C(F)(F)F [4c, Dimethyl-(3,3,4,4,5,5,6,6,7,7,8,8,9,9,10,10,11,11,12,12,12-heneicosafluorododecyl)stannane] | 4.7 | 48 | –
4 | FC(F)(F)C(F)(F)C(F)(F)C(F)(F)C(F)(F)C(F)(F)C[CH2][SnH]([CH2]CC(F)(F)C(F)(F)C(F)(F)C(F)(F)C(F)(F)C(F)(F)F)[CH2]CC(F)(F)C(F)(F)C(F)(F)C(F)(F)C(F)(F)C(F)(F)F [(C6F13CH2CH2)3SnH] | – | – | insoluble or nearly insoluble
